Laboratory results as given in patent US11492327B2, “Aminooxylipids for the construction of self-assembling liposomal systems enabling their subsequent modification by biologically functional molecules” (VYSOKA SKOLA CHEMICKO-TECHNOLOGICKA V PRAZE, priority 2016, dated 2022).

How the values were obtained:
[1] = HA binding onto liposomes presenting the aminooxy group vs. the amino group (gel chromatography, fluorimetry); settings: incubated in 10 mM citric acid; lipid incorporated in liposomes
Experimental: Methods: Liposomes presenting the aminooxy group were prepared by the procedure described in Example 15, containing 1% aminooxylipidid of general formula I (according to Example 14) at a starting concentration of 10 mg/ml PBS. The amino group-presenting liposomes were prepared by the same technique with the amino group-containing lipid DOPE. These liposomes at a starting concentration of 10 mg/ml PBS were mixed with fluorescently labelled HA (Sigma-Aldrich) at a concentration of 1 mg/ml PBS in a ratio of 1 mg total lipid to 0.1 mg HA. Incubation takes place for at least 30 minutes at room temperature (see Example 19). Both samples were incubated in 10 mM citric acid. Unbound HA was removed on a Superose 6 column (200 μl spraying buffer, flow rate of the first milliliter was 0.1 ml/min, then 0.3 ml/min, collection of 1 ml fractions). Fluorescence was measured using a Perkin Elmer fluorimeter at appropriate wavelengths (excitation for FITC-HA was 490 nm, emission 505 nm).

[2] = system: H1299 cells of lung carcinoma cell line; experiment: Cytotoxicity of liposomes: apoptotic cells detected with Annexin V by flow cytometry; type: cell-based; settings: aminooxylipid incorporated into liposomal bilayer
Experimental: (§1) Methods: The cytotoxicity of liposomes prepared as described in Example 15 is determined by comparing the cytotoxicity of EPC liposomes and EPC liposomes with an incorporated aminooxylipid of general formula I (according to Example 12, 13 or 14) in in vitro experiments with T-lymphocytes and on H1299 cells of lung carcinoma cell line.
(§2) Measurements were performed on a flow cytometer Fortessa (Becton Dickinson). Apoptotic cells were detected and quantified using the fluorescent dye Annexin V (Invitrogen).
(§3) In all experiments, 500 μl media per well were used and lipid content was 100 μg per 1 ml of the medium. Unmodified liposomes and liposomes modified post-liposomally with hyaluronic acid were incubated. In Experiment 1, H1299 cells of lung carcinoma were incubated for 30 minutes at 4° C. In Experiment 2, T-lymphocytes were used and incubated at room temperature in a rotator. In Experiments 3 and 4, H1299 cells of lung carcinoma cell line were used and incubated for 2 hours in a CO2 incubator (37° C., 5% CO2). In Experiment 5, H1299 cells of lung carcinoma were used. These cells were incubated for 30 minutes at 4° C. in a refrigerator.

T-lymphocytes = experiment: as above; type: cell-based; settings: aminooxylipid incorporated into liposomal bilayer
Experimental: as §1, §2, §3

[3] = Size, PDI and zeta-potential of liposomes by DLS (Nanosizer ZS); type: physicochemical; settings: for Effect of incorporation into liposomes on the final distribution of liposomes: 99% EPC, 1% aminooxylipid; for Zeta potential: liposomes containing 1% aminooxylipid in PBS solution with neutral pH
Experimental: Methods: Liposomes with incorporated aminooxylipids were prepared by phospholipid film hydration. All lipids were dissolved in chloroform at a concentration of 10 mg of lipid/1 ml chloroform at a molar ratio of 99% EPC to 1% aminooxylipids of general formula I (according to Examples 12, 13 and 14). The chloroform solution was evaporated in a globular flask on a rotary evaporator; pressure: 100 hPa, water bath temperature: 37° C., 90 revolutions/minute). The resulting lipid film was hydrated with PBS (pH 7.2, 0.14M NaCl, 20 mM Na-phosphate) to a final concentration of 10 mg/ml. The liposomes were then extruded through Nucleopore polycarbonate filters with 400 and 100 nm pore size. The size and zeta-potential were measured using a Nanosizer ZS (Malvern, UK) in a DTS cell, Attenuator value 4, 25° C. […] Example with a lipid of general formula I (according to Example 12): EPC liposomes: size 82 nm, PDI 0.11; EPC+ aminooxylipid 1%: size 81 nm, PDI 0.1.
DLS measurements were carried out under the same conditions as in Example 15.
Methods: The liposomes prepared as described in Example 15, containing 1% aminooxylipidid of general formula I (according to Example 14) at a starting concentration of 10 mg/ml PBS were mixed with a mannan solution in PBS in a ratio of 1 mg total lipid to 0.1 mg mannan. The reaction was carried out at room temperature. Low molecular weight components and unbound mannan were removed by gel chromatography on a Superose 6 column. The mannan binding onto the liposomal surface was confirmed by: a) scanning and transmission electron microscopy; b) the change in liposome size was determined by the DLS technique (Zetasizer ZS, Malvern UK). The polysaccharide mannan was isolated from the yeast Candida albicans. The size of the molecules of mannan and liposomes was measured by DLS. […] Dendritic cells were prepared by culture from peripheral blood of healthy donors. Their stimulating activity was compared with lipopolysaccharide activity (LPS, standard Salmonella minnesota).

| Structure (SMILES) | HA remaining bound after acidification, % of the original HA [1] | Cytotoxicity of EPC liposomes with incorporated aminooxylipid vs. EPC liposomes [2] | Cytotoxicity of EPC liposomes with incorporated aminooxylipid vs. EPC liposomes (T-lymphocytes) | Effect of incorporation into liposomes on the final distribution of liposomes ([3]; Example 15) | PDI ([3]; Example 15, EPC liposomes without or with 1% aminooxylipid, PBS) | size ([3]; Example 15, EPC liposomes without or with 1% aminooxylipid, PBS, extruded 400 and 100 nm) | Zeta potential [3] | size (size distribution, particle numbers) ([3]; Example 20, FIG. 3, liposomes with 1% aminooxylipid, alone or coupled with IgY) |
| --- | --- | --- | --- | --- | --- | --- | --- | --- |
| CCCCCCCC/C=C\CCCCCCCC(=O)OC[C@H](COP(=O)(O)OCCN)OC(=O)CCCCCCC/C=C\CCCCCCCC [DOPE, 1,2-dioleoyl-sn-glycero-3-phosphoethanolamine, reference compound] | 20% | – | – | – | – | – | – | – |
| CCCCCCCCCCCCCCC(CCCCCCCCCCCCCC)C(=O)NCCNC(=O)CON.O=C(O)C(F)(F)F [Example 12, N^1-(2-tetradecylhexadecanoyl)-N^2-amoniumoxyacetyl-1,2-diaminoethane-trifluoroacetate] | – | does not result in an increase in their cytotoxicity | does not result in an increase in their cytotoxicity | no significant effect | 0.1 | 81 nm | around 0 mV | – |
| CCCCCCCCCCCCCCC(CCCCCCCCCCCCCC)C(=O)NCCCNC(=O)CON.O=C(O)C(F)(F)F [Example 13, N^1-(2-tetradecylhexadecanoyl)-N^3-amoniumoxyacetyl-1,3-diaminopropane-trifluoracetate] | – | does not result in an increase in their cytotoxicity | does not result in an increase in their cytotoxicity | no significant effect | – | – | around 0 mV | – |
| CCCCCCCCCCCCCCC(CCCCCCCCCCCCCC)C(=O)NCOC(CCOCC)NC(=O)CON.O=C(O)C(F)(F)F (centres unmarked) [Example 14, N^1-(2-tetradecylhexadecanoyl)-N^3-amoniumoxyacetyl-1,3-diamino-2,6-dioxaoctane-trifluoracetate] | did not change due to acidification | does not result in an increase in their cytotoxicity | does not result in an increase in their cytotoxicity | no significant effect | – | – | around 0 mV | 107 nm |
